Biological target: LYR3 (Medicago truncatula, UniProt G7KAT5)
Test: Saturation and competitive binding on LYR3-YFP expressed in N. benthamiana leaf membrane fractions
Conditions: for Ki: LYR3-YFP in N. benthamiana leaf membranes, competition with 0.9 nM LCO-IV(35S, C16:2Δ2,9), read-out: Affinity (nM) for LYR3 (Ki); for affinity / competition for binding to LYR3 (in words): competition with radioactive LCO
Source text: Genes LYR3, LYK9 and LYR6 were inserted into a binary vector, fused in C-terminal with a fluorescent protein (Yellow Fluorescent Protein: YFP) and introduced into Nicotiana benthamiana leaves using agroinfiltration by Agrobacterium tumefaciens. Meanwhile, NFP and LYK3 genes which encode putative receptors […] Nod factors were inserted into the same vectors and expressed in the same conditions.
3 days after agro-infiltration, leaves of N. benthamiana expressing the different constructs were harvested and ground in liquid nitrogen. Membrane fractions were prepared from the ground material, using the same protocol as that described above for the preparation of microsomal fractions, except that 0.6% (w/v) of polyvinyl-polypyrrolidone were added to extraction buffer. After centrifugation at 3000×g, the supernatant was collected and centrifuged at 45000×g. The resulting (membrane fraction) pellet was resuspended in binding buffer, and stored at −80° C. in the presence of 10% or 50% glycerol, until use.
Membrane proteins were separated by 10% polyacrylamide gel electrophoresis in SDS, and transferred onto nitrocellulose membrane, and detection of recombinant proteins made using anti-GFP antibody. Meanwhile, the properties of specific binding to LCOs were assessed by equilibrium binding, as described in Example 1, using 0.8 to 2.4 nM of LCO-IV (^35S, C16:2Δ2, 9) +/−2 μM of unlabeled LCO-IV (S, C16: 2Δ2, 9), and 25 micrograms to 80 micrograms of membrane protein, depending of the expression level of the protein labeled with YFP.
To further characterize the binding properties of the protein LYR3, saturation binding experiments using LCO-IV (^35S, C16:2Δ2, 9) and competitive binding experiments in the presence of different COs or LCOs were performed.

Sequence of LYR3 (G7KAT5 entry or part of it): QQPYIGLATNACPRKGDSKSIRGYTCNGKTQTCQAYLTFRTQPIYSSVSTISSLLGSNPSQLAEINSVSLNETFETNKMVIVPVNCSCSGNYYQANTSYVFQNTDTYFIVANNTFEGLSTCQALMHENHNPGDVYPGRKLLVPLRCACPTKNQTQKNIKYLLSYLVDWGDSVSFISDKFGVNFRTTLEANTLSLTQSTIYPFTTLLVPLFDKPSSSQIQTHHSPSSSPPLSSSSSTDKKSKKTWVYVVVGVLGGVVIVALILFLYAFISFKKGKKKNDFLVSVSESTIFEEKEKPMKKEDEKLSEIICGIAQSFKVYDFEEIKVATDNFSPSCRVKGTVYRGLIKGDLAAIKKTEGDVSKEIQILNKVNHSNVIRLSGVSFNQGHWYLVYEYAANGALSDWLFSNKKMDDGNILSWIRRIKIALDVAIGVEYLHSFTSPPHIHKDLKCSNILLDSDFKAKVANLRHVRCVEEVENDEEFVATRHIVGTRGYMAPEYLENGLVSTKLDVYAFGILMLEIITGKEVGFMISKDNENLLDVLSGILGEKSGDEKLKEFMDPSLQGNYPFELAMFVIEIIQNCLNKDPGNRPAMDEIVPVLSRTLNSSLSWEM

Row | Ki | Compound | affinity / competition for binding to LYR3 (in words)
1 | 1200 nM | CC(=O)N[C@H]1[C@H](O[C@H]2[C@H](O)[C@@H](NC(C)=O)[C@H](O[C@H]3[C@H](O)[C@@H](NC(C)=O)C(O)O[C@@H]3CO)O[C@@H]2CO)O[C@H](CO)[C@@H](O[C@@H]2O[C@H](CO)[C@@H](O[C@@H]3O[C@H](CO)[C@@H](O[C@@H]4O[C@H](CO)[C@@H](O)[C@H](O)[C@H]4NC(C)=O)[C@H](O)[C@H]3NC(C)=O)[C@H](O)[C@H]2NC(C)=O)[C@@H]1O (stereo partly shown) [CO-VI] | –
2 | 79 nM | CCCCCC/C=C\CCCCCCCC(=O)N[C@H]1[C@H](O[C@H]2[C@H](O)[C@@H](NC(C)=O)[C@H](O[C@H]3[C@H](O)[C@@H](NC(C)=O)C(O)O[C@@H]3CO)O[C@@H]2CO)O[C@H](CO)[C@@H](O)[C@@H]1O (stereo partly shown) [LCO-III(C16:1Δ9)] | –
3 | 30 nM | CCCCCC/C=C\CCCCC/C=C/C(=O)N[C@H]1[C@H](O[C@H]2[C@H](O)[C@@H](NC(C)=O)[C@H](O[C@H]3[C@H](O)[C@@H](NC(C)=O)[C@H](O[C@H]4[C@H](O)[C@@H](NC(C)=O)C(O)O[C@@H]4CO)O[C@@H]3CO)O[C@@H]2CO)O[C@H](CO)[C@@H](O)[C@@H]1O (stereo partly shown) [LCO-IV(C16:2Δ2, 9)] | –
4 | 21 nM | CCCCCC/C=C\CCCCCCCC(=O)N[C@H]1[C@H](O[C@H]2[C@H](O)[C@@H](NC(C)=O)[C@H](O[C@H]3[C@H](O)[C@@H](NC(C)=O)[C@H](O[C@H]4[C@H](O)[C@@H](NC(C)=O)C(O)O[C@@H]4COS(=O)(=O)O)O[C@@H]3CO)O[C@@H]2CO)O[C@H](CO)[C@@H](O)[C@@H]1O (stereo partly drawn) [LCO-IV(S, C16:1Δ9)] | –
5 | 7 nM | CCCCCCCC/C=C\CCCCC/C=C/C(=O)N[C@H]1[C@H](O[C@H]2[C@H](O)[C@@H](NC(C)=O)[C@H](O[C@H]3[C@H](O)[C@@H](NC(C)=O)[C@H](O[C@H]4[C@H](O)[C@@H](NC(C)=O)C(O)O[C@@H]4COS(=O)(=O)O)O[C@@H]3CO)O[C@@H]2CO)O[C@H](CO)[C@@H](O)[C@@H]1O (stereo partly drawn) [LCO-IV(S, C18:2Δ2, 9)] | –
6 | – | peptidoglycan | no competition

Row | Compound | Ki | affinity / competition for binding to LYR3 (in words)
7 | CCCCCC/C=C\CCCCCCCC(=O)N[C@H]1[C@H](O[C@H]2[C@H](O)[C@@H](NC(C)=O)C(O)O[C@@H]2CO)O[C@H](CO)[C@@H](O)[C@@H]1O (stereo partly shown) [LCO-II(C16:1Δ9)] | > 5000 nM | very low
8 | CCCCCC/C=C\CCCCCCCC(=O)N[C@H]1[C@H](O[C@H]2[C@H](O)[C@@H](NC(C)=O)[C@H](O[C@H]3[C@H](O)[C@@H](NC(C)=O)[C@H](O[C@H]4[C@H](O)[C@@H](NC(C)=O)[C@H](O[C@H]5[C@H](O)[C@@H](NC(C)=O)C(O)O[C@@H]5CO)O[C@@H]4CO)O[C@@H]3CO)O[C@@H]2CO)O[C@H](CO)[C@@H](O)[C@@H]1O (stereo partly shown) [LCO-V(C16:1Δ9)] | 4.3 nM | slightly higher
